Measured values: ChEMBL document CHEMBL1157956, “Aegicerin, the first oleanane triterpene with wide-ranging antimycobacterial activity, isolated from Clavija procera” (J Nat Prod, 2006)
Converted amounts (≈) assume the structure as drawn.

Key:
[1] = test system: Mycobacterium tuberculosis; assay: Antimicrobial activity against multidrug-resistant Mycobacterium tuberculosis isolate by alamar blue assay; assay type: functional
[2] = test system: Mycobacterium tuberculosis; assay: Antimicrobial activity against isoniazid-resistant Mycobacterium tuberculosis isolate by alamar blue assay; assay type: functional

Structure (SMILES): CC1(C)CC[C@]23CO[C@@]4(CC[C@@H]5[C@@]6(C)CC[C@H](O)C(C)(C)[C@@H]6CC[C@@]5(C)[C@]4(C)CC2=O)[C@@H]3C1 [AEGICERIN]
- MIC [1]: 1.6 µg/mL (≈ 3.5 µM)
- MIC [2]: 1.6 µg/mL (≈ 3.5 µM)

Structure (SMILES): NNC(=O)c1ccncc1 [ISONIAZID]
- MIC [1]: > 4 µg/mL
- MIC [2]: 2 µg/mL (≈ 14.6 µM)

Structure (SMILES): CC1(C)CC[C@]23CO[C@@]4(CC[C@@H]5[C@@]6(C)CC[C@H](O)C(C)(C)[C@@H]6CC[C@@]5(C)[C@]4(C)C[C@H]2O)[C@@H]3C1 [PROTOPRIMULAGENIN A]
- MIC [1]: 200 µg/mL (≈ 436 µM)
- MIC [2]: 200 µg/mL (≈ 436 µM)

Structure (SMILES): CO[C@H]1/C=C/O[C@@]2(C)Oc3c(C)c(O)c4c(O)c(c(/C=N/N5CCN(C)CC5)c(O)c4c3C2=O)NC(=O)/C(C)=C\C=C\[C@H](C)[C@H](O)[C@@H](C)[C@@H](O)[C@@H](C)[C@H](OC(C)=O)[C@@H]1C [RIFAMPIN]
- MIC [1]: > 2 µg/mL
- MIC [2]: 0.063 µg/mL (≈ 0.0766 µM)
